Experimental findings from US11613538B2, “Method of inhibiting or reducing a viral infection” (PTC Therapeutics, Inc., priority 2009, dated 2023) are described below.

Structures are written as SMILES. A value given as a limit tells only on which side of the number the result lay.

For the test, the system named is hypoxia-induced VEGF production in HeLa cells. The test can be described thus: cells. Type of test: cell-based, human. As to conditions: Homo sapiens, HeLa.
Broadly, the EC50 is the concentration giving half of the maximal effect. The compound `COc1ccc(C2NCCc3c2[nH]c2ccc(SC)cc32)cc1` (stereo not shown) [Compound 1487] came in with a 50% effective concentration (EC50) of more than 1000 nM.

The compound `COc1ccc(OC(=O)N2CCc3c([nH]c4cc(F)ccc34)C2c2ccc(OC(F)F)cc2)cc1` (stereo not shown) [Compound 1462] showed a 50% effective concentration (EC50) of 200 to 1000 nM.

`O=C(OCC1CCCC1)N1CCc2c([nH]c3ccc(Cl)cc23)[C@@H]1c1ccc(O)cc1` [Compound 1631] had an EC50 of 40 to 200 nM.

With `CCOC(=O)N1CCc2c([nH]c3ccc(SC)cc23)C1c1ccc(OC)cc1` (stereo not shown) [Compound 1482], the concentration giving a half-maximal response (EC50) lay in the range of 40 to 200 nM.

For the compound `CCOC(=O)N1CCc2c([nH]c3ccc(Cl)cc23)[C@@H]1c1ccc(OCCC(O)CNC(=O)COC)cc1` (stereo partly shown) [Compound 1271], the concentration giving a half-maximal response (EC50) is 8 to 40 nM.

In turn, `CCOC(=O)N1CCc2c([nH]c3ccc(Cl)cc23)C1c1cccc(OCCCn2ccnc2)c1` (stereo not shown) [Compound 1122] returned an EC50 of more than 1000 nM.

`COc1cc(C2c3[nH]c4ccc(Cl)cc4c3CCN2C(=O)Oc2ccc(Cl)cc2)ccc1OCCCCN1CCOCC1` (stereo not shown) [Compound 1094]: the concentration for a half-maximal effect (EC50) fell in the range of 8 to 40 nM.

On to `C#CCCOC(=O)N1CCc2c([nH]c3ccc(Cl)cc23)C1c1ccc(OCC2OCCO2)cc1` (stereo not shown) [Compound 1049], for which the EC50 was less than 8 nM.

Take `COc1ccc(C2c3[nH]c4ccc(Cl)cc4c3CCN2c2nc(O)cs2)cc1` (stereo not shown) [Compound 1586]: the concentration for a half-maximal effect (EC50) lay in the range of 40 to 200 nM.

The compound `Cc1ccc(OC(=O)N2CCC3c4cc(Cl)ccc4NC3[C@@H]2c2ccc(OCCC(O)CN3CCOCC3)cc2)cc1` (stereo partly shown) [Compound 1302] displayed an EC50 of 40 to 200 nM.

Regarding `CCOC(=O)N1CCc2c([nH]c3ccc(Cl)cc23)[C@@H]1c1ccc(OCCC(O)CNC(=O)c2cccnc2)cc1` (stereo partly shown) [Compound 1617], the EC50 is 8 to 40 nM.

Regarding `CCOC(=O)N1CCc2c([nH]c3ccc(Cl)cc23)C1c1ccc(OCC(=O)NCCN2CCOCC2)cc1` (stereo not shown) [Compound 1004], the concentration giving a half-maximal response (EC50) was in the range of 8 to 40 nM.

For the compound `CC#CCOC(=O)N1CCc2c([nH]c3cc(F)ccc23)C1c1ccc(C)cc1` (stereo not shown) [Compound 1456], the concentration for a half-maximal effect (EC50) was more than 1000 nM.

`COCCOC(=O)N1CCc2c([nH]c3ccc(Cl)cc23)C1c1ccc(OCCNc2cc(C)no2)cc1` (stereo not shown) [Compound 1411]: the 50% effective concentration (EC50) is 200 to 1000 nM.

`CCC(CO)(CO)COc1ccc([C@H]2c3[nH]c4ccc(Cl)cc4c3CCN2C(=O)OC2CCCC2)cc1` [Compound 1327] registered an EC50 of less than 8 nM.

`CC(C)OC(=O)N1CCc2c([nH]c3ccc(Cl)cc23)[C@@H]1c1ccc(OCC(C)(CO)CO)cc1` [Compound 1296] showed an EC50 of 8 to 40 nM.

The compound `O=C(COc1ccc(C2c3[nH]c4ccc(Cl)cc4c3CCN2C(=O)Oc2ccc(F)cc2)cc1)N1CCOCC1` (stereo not shown) [Compound 1023] displayed a concentration giving a half-maximal response (EC50) of 8 to 40 nM.

The compound `CCOC(=O)N1CCc2c([nH]c3ccc(Cl)cc23)C1c1cccc(OCCCn2ccnn2)c1` (stereo not shown) [Compound 1124] displayed an EC50 of 200 to 1000 nM.

As for `O=C(OC1CCCC1)N1CCc2c([nH]c3ccc(Cl)cc23)[C@@H]1c1ccc(OCCCO)cc1` [Compound 1285], the EC50 was less than 8 nM.

The compound `CCOC(=O)N1CCc2c([nH]c3ccc(Cl)cc23)[C@@H]1c1ccc(OCCC(O)CN(CCO)CCO)cc1` (stereo partly shown) [Compound 1273] returned a concentration giving a half-maximal response (EC50) of 8 to 40 nM.

For the compound `C#CCCOC(=O)N1CCc2c([nH]c3ccc(Cl)cc23)C1c1ccc(OCC(O)CO)cc1` (stereo not shown) [Compound 1019], the 50% effective concentration (EC50) is 8 to 40 nM.

Turning to `CS(=O)(=O)CCCOc1ccc(C2c3[nH]c4ccc(Cl)cc4c3CCN2C(=O)Oc2ccc(Cl)cc2)cc1` (stereo not shown) [Compound 1551], the EC50 is less than 8 nM.

Take `COc1ccc(C2c3[nH]c4cc(C(F)(F)F)ccc4c3CCN2C(=O)Oc2ccc(F)cc2)cc1` (stereo not shown) [Compound 1424]: the concentration giving a half-maximal response (EC50) is more than 1000 nM.

As for `O=C(Oc1ccccc1)N1CCc2c([nH]c3ccc(Cl)cc23)C1c1ccc(OCCCN2CCOCC2)cc1` (stereo not shown) [Compound 1075], the EC50 fell in the range of 8 to 40 nM.

As to `O=C(OCC1CC1)N1CCc2c([nH]c3ccc(Cl)cc23)[C@@H]1c1ccc(OCC[C@H](O)CO)cc1` [Compound 1373], the EC50 is less than 8 nM.

As to `C[Si](C)(C)CCS(=O)(=O)N1CCC(Oc2ccc([C@H]3c4[nH]c5ccc(Cl)cc5c4CCN3C(=O)Oc3ccc(F)cc3)cc2)CC1` [Compound 1607], the EC50 is less than 8 nM.

`O=C(Oc1ccc(Cl)cc1)N1CCc2c([nH]c3ccc(Cl)cc23)C1c1ccc(OCC[C@H](O)CO)cc1` (stereo partly shown) [Compound 1172]: the EC50 was less than 8 nM.

The compound `COc1ccc(C2c3[nH]c4ccc(Cl)cc4c3CCN2c2nc(-c3ccc(Cl)cc3)cs2)cc1` (stereo not shown) [Compound 1597] showed an EC50 of less than 8 nM.

For `O=C(Oc1ccc(Cl)cc1)N1CCc2c([nH]c3ccc(Cl)cc23)[C@@H]1c1ccc(OCCCNC2CCCC2)cc1` [Compound 1235], the EC50 fell in the range of 8 to 40 nM.

Consider `O=C(OC1CCCC1)N1CCc2c([nH]c3ccc(Cl)cc23)[C@@H]1c1ccc(OC[C@H](O)CO)cc1` [Compound 1322], for which the EC50 was less than 8 nM.

For the compound `CC(C)COC(=O)N1CCc2c([nH]c3ccc(Br)cc23)C1c1ccc(OCC(C)(CO)CO)cc1` (stereo not shown) [Compound 1351], the EC50 is less than 8 nM.

On to `CCC(CO)(CO)COc1ccc([C@H]2c3[nH]c4ccc(Cl)cc4c3CCN2C(=O)OCC2CC2)cc1` [Compound 1383], for which the 50% effective concentration (EC50) was less than 8 nM.

`COCCOC(=O)N1CCc2c([nH]c3ccc(Cl)cc23)C1c1ccc(OCCCn2nccn2)cc1` (stereo not shown) [Compound 1084]: the 50% effective concentration (EC50) was in the range of 8 to 40 nM.

Regarding `O=C(Oc1ccc(Cl)cc1)N1CCc2c([nH]c3ccc(Cl)cc23)C1c1ccc(OCCCn2nccn2)cc1` (stereo not shown) [Compound 1016], the concentration for a half-maximal effect (EC50) is more than 1000 nM.

Compound `O=C(c1ccccc1)N1CCc2c([nH]c3ccc(Cl)cc23)C1c1ccc(OCCCn2cncn2)cc1` (stereo not shown) [Compound 1139] came in with a concentration for a half-maximal effect (EC50) of 8 to 40 nM.

Regarding `CCOC(=O)N1CCc2c([nH]c3ccc(Cl)cc23)[C@@H]1c1ccc(OCC(C)(CO)CO)cc1` [Compound 1283], the EC50 was less than 8 nM.

For the compound `C[Si](C)(C)CCS(=O)(=O)N1CCC(Oc2ccc(C3c4[nH]c5ccc(Cl)cc5c4CCN3c3ncccn3)cc2)CC1` (stereo not shown) [Compound 1583], the EC50 is less than 8 nM.

In turn, `COC(=O)[C@H]1CCCN1CCCOc1ccc(C2c3[nH]c4ccc(Cl)cc4c3CCN2C(=O)Oc2ccc(Cl)cc2)cc1` (stereo partly shown) [Compound 1362] had an EC50 of less than 8 nM.

Compound `CCOC(=O)N1CCc2c([nH]c3ccc(Cl)cc23)[C@@H]1c1ccc(Oc2ncc(CN3CCN(C)CC3)s2)cc1` [Compound 1657] showed a concentration giving a half-maximal response (EC50) of less than 8 nM.

In turn, `CC1(COc2ccc([C@H]3c4[nH]c5ccc(Cl)cc5c4CCN3C(=O)OCC3CC3)cc2)COC(C)(C)OC1` [Compound 1317] gave a concentration giving a half-maximal response (EC50) of less than 8 nM.

As for `CCOC(=O)N1CCc2c([nH]c3cc(C(F)(F)F)ccc23)C1c1ccc(OC)cc1` (stereo not shown) [Compound 1423], the EC50 is more than 1000 nM.

On to `Cc1ccc(C(=O)N2CCc3c([nH]c4ccc(Cl)cc34)C2c2ccc(OCCCn3cncn3)cc2)cc1` (stereo not shown) [Compound 1135], for which the EC50 is 8 to 40 nM.

Turning to `CC(=O)N[C@@H](Cc1ccccc1)C(=O)N1CCc2c([nH]c3ccc(Cl)cc23)C1c1ccc(OCCN2CCOCC2)cc1` (stereo partly shown) [Compound 1506], the EC50 was more than 1000 nM.

Compound `CC(C)(C)OC(=O)N1CCc2c([nH]c3ccc(Cl)cc23)C1c1ccc(OCCCn2cnnc2)cc1` (stereo not shown) [Compound 1187] returned an EC50 of less than 8 nM.

In the case of `O=C(OCC1CCC1)N1CCc2c([nH]c3ccc(Cl)cc23)[C@@H]1c1ccc(OCCCO)cc1` [Compound 1368], the EC50 is less than 8 nM.

The compound `O=C(OCc1ccccc1Cl)N1CCc2c([nH]c3ccc(Cl)cc23)C1c1ccc(OCC2OCCO2)cc1` (stereo not shown) [Compound 1057] yielded a concentration giving a half-maximal response (EC50) of less than 8 nM.
